From patent US20080009511A1, “Cancer treatment with compounds inhibiting PKC alpha” (priority 2004, published 2008)

Legend:
U-937 lymphoma cells = assay: Cell viability assay (trypan blue dye exclusion), viable cells counted at day 6; format: cell-based, human; details: 5 micromoles
Experimental: Cells were seeded for 24 hours. Then they were treated with PKC inhibitors or left untreated. The cells were then collected periodically and evaluated using trypan blue dye exclusion to assess viability using the method described by C Y Chen, et al., in J. Biol. Chem. 273:16700-16709. Cultures containing about 4×10^4 cells were treated with 5 micromoles of Gö7874 (except that PC3 prostate cancer cells were treated with 10 micromoles) and the viable cells were counted at day 6.

[1] = test system: MDA-MB-468 human breast cancer cells; assay: as above; format: cell-based; details: 5 micromoles
Procedure, shortened: (§1)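 Cells grown in DMEM with 10 percent bovine calf serum were seeded for 24 hours, then cultures of about 4×10^4 cells received PKC inhibitors or were left untreated. Gö7874 was used at 5 micromoles; Gö6850, NGIC-I and the Ro31 compounds at 10 micromoles.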

[2] = test system: A431 human epidermoid carcinoma cells; assay: as above; format: cell-based; details: 5 micromoles
Procedure, shortened: as §1

[3] = test system: AGS human gastric cancer cells; assay: as above; format: cell-based; details: 5 micromoles
Procedure, shortened: as §1

[4] = test system: HT29 human colon cancer cells; assay: as above; format: cell-based; details: 5 micromoles
Procedure, shortened: as §1

[5] = test system: H460 human lung cancer cells; assay: as above; format: cell-based; details: 5 micromoles
Procedure, shortened: as §1

[6] = test system: Jurkat cells (a human acute T-cell leukemia cell line); assay: as above; format: cell-based; details: 5 micromoles
Procedure, shortened: as §1

[7] = test system: NBT-II human bladder cancer cells; assay: as above; format: cell-based; details: 5 micromoles, about 4×10^4 cells seeded, untreated 2.9 ± 0.4
Procedure, shortened: as §1

[8] = test system: HepG2 human liver cancer cells; assay: as above; format: cell-based; details: 5 micromoles
Procedure, shortened: as §1

[9] = test system: PANC-1 human pancreatic carcinoma cells; assay: as above; format: cell-based; details: 5 micromoles
Procedure, shortened: as §1

[10] = test system: Hela human cervical cancer cells; assay: as above; format: cell-based; details: 5 micromoles
Procedure, shortened: as §1

[11] = test system: PC3 human prostate cancer cells; assay: as above; format: cell-based; details: 10 micromoles
U251 human glioma cells = assay: as above; format: cell-based; details: 5 micromoles
Procedure, shortened: as §1

[12] = test system: 3Y1 rat fibroblast cells overexpressing EGF receptors (3Y1-EGFR cells); assay: EGF-induced cell transformation (transformed morphology); format: cell-based; details: 1 micromole
KB oral cancer cells = assay: Cell viability assay (trypan blue dye exclusion), viable cells counted at day 6; format: cell-based, human; details: 5 micromoles
Procedure, shortened: as §1

[13] = test system: 3Y1 rat fibroblast cells overexpressing the epidermal growth factor receptor (EGFR); assay: Soft agar/cell transformation assay; format: cell-based; details: 1 micromole with EGF (100 ng/ml), in contrast to EGF alone
From the text: 1×10^3 3Y1 rat fibroblast cells overexpressing the epidermal growth factor receptor (EGFR) were suspended in top agar (consisting of 20 percent calf serum, 0.38 percent agar and the remainder DMEM) and overlaid onto bottom agar (DMEM, 20 percent calf serum and 0.7 percent agar) as reported by Sementchenko et al., in Onocgen 17:2883-2888.

[14] = about 4×10^4 cells seeded, untreated 3.8 ± 0.4

COc1ccc2c(c1)c1c3c(c4c5ccccc5n(C)c4c1n2CC(O)CN(C)C)C(=O)NC3=O.Cl (stereo not drawn) [Gö7874, 5,7(6H)-dione,13-[3-(dimethylamino)-2-hydroxypropyl]-12,13-dihydro-3-methoxy-12-methyl-5H-Indolo[2,3-a]pyrrolo[3,4-c]carbazole, monohydrochloride]
cells that went to apoptosis after treatment (U-937 lymphoma cells): all
cells that went to apoptosis after treatment [1]: all
Treated (cell number × 10^5) ([1]; about 4×10^4 cells seeded, untreated 6.1 ± 0.4): 0 × 10^5
cells that went to apoptosis after treatment [2]: all
Treated (cell number × 10^5) ([2]; about 4×10^4 cells seeded, untreated 5.4 ± 0.4): 0 × 10^5
cells that went to apoptosis after treatment [3]: all
inhibition of cell proliferation [3]: More than 60%
Treated (cell number × 10^5) ([3]; about 4×10^4 cells seeded, untreated 2.4 ± 0.3): 0.8 × 10^5
cells that went to apoptosis after treatment [4]: all
Treated (cell number × 10^5) [4, 14]: 0 × 10^5
cells that went to apoptosis after treatment [5]: all
Treated (cell number × 10^5) ([5]; about 4×10^4 cells seeded, untreated 2.4 ± 0.2): 0 × 10^5
originally seeded cells survived (fraction, words) [6]: less than one third
Treated (cell number × 10^5) ([6]; about 4×10^4 cells seeded, untreated 8.8 ± 0.4): 0.1 × 10^5
Treated (cell number × 10^5) [7]: 0 × 10^5
cells that went to apoptosis after treatment [8]: all
Treated (cell number × 10^5) ([8]; about 4×10^4 cells seeded, untreated 4.2 ± 0.4): 0 × 10^5
cells that went to apoptosis after treatment [9]: all
Treated (cell number × 10^5) ([9]; about 4×10^4 cells seeded, untreated 2.1 ± 0.3): 0 × 10^5
cells that went to apoptosis after treatment [10]: all
Treated (cell number × 10^5) ([10]; about 4×10^4 cells seeded, untreated 3.4 ± 0.4): 0 × 10^5
cells that went to apoptosis after treatment [11]: all
Treated (cell number × 10^5) ([11]; about 4×10^4 cells seeded, untreated 7.1 ± 0.3): 0 × 10^5
cells that went to apoptosis after treatment (U251 human glioma cells): all
Treated (cell number × 10^5) (U251 human glioma cells; about 4×10^4 cells seeded, untreated 9.6 ± 0.5): 0 × 10^5
cell apoptosis during co-treatment ([12]; co-treatment with 100 ng/ml EGF): without detected cell apoptosis
effect on EGF-induced transformed morphology ([12]; co-treatment with 100 ng/ml EGF for 48 hours): partially blocked
cells that went to apoptosis after treatment (KB oral cancer cells): all
Treated (cell number × 10^5) (KB oral cancer cells; [14]): 0 × 10^5
reduction of colony number in soft agar [13]: 82%
